For experiment [1], the system named is ultraviolet ray-induced pigmentation. The experiment can be described thus: Ultraviolet ray-induced pigmentation inhibition test using pigmented guinea pigs. Particulars: for ΔL* value: 1% (w/v) in ethanol, 30 μL once a day for 6 weeks, L* day 57 minus L* day 15, mean ± SD of eight animals; for inhibition of pigmentation induced by ultraviolet rays (in words): applied to the skin at a concentration of 1%. Type of experiment: in vivo. The source says: The hair of the dorsal skin of each of eight pigmented guinea pigs was removed and shaved using an electrical hair clipper and shaver, and each of the sites was covered with a black cloth having a total of four (two on the top and bottom and two on the right and left) irradiation windows with a size of 2×2 cm, and then irradiated with ultraviolet rays of 300 mJ/cm^2 using FL20S•E30 lamp as a light source. This operation was repeated on days 1, 3, 5, 8, 10, and 12 after the start of the test to induce pigmentation on the four test sites.
Compound 2, Compound 3, and Compound 4 were dissolved in ethanol at a concentration of 1% (w/v) to prepare samples for application. Further, as a control, ethanol was used alone as a sample for application.
On day 15 of the test, application of the samples was started. The respective samples were applied to the predetermined test sites once a day in an amount of 30 μL, and the application was continued for 6 weeks (until day 56 of the test).
On the day of the start of application (day 15 of the test) and after the completion of application for 6 weeks (on day 57 of the test), the skin brightness (L* value) of each of the test sites was measured using a colorimeter (CR-200, Konica Minolta Holdings, Inc.), and a ΔL* value was calculated by subtracting an L* value on day 15 of the test from an L* value on day 57 of the test. […] As degree of the pigmentation becomes stronger, the L* value becomes smaller. Therefore, it can be evaluated that, as the ΔL* value becomes larger, pigmentation is more inhibited.

In experiment [2] the test system is Trichopyton mentagrophytes (ATCC18748). Put plainly: Measurement of antimycotic activity (Alamar Blue growth inhibition of dermatophytes). Format: cell-based. Particulars: for MIC80: read-out: MIC80 Concentration. The procedure: 10.4 g of RPMI1640 (manufactured by SAFC Biosciences) were dissolved in 900 mL of distilled water, and 34.53 g of a 0.165 M MOPS buffer (manufactured by DOJINDO LABORATORIES) were added and dissolved by stirring.
Dermatophytes (Trichopyton mentagrophytes (ATCC18748)) were inoculated into a 1/10 Sabouraud Dextrose agar medium (manufactured by DIFCO) and cultured at 28° C. for 14 days, and then a conidial suspension was prepared using 0.1% Tween80-including physiological saline. The suspension was filtered through gauze, and the number of the conidia was counted using a hemocytometer and then adjusted to 2.5×10^5/mL with the RPMI1640 medium. The resultant suspension was used as an inoculum.
Compound 5 and clotrimazole were diluted with the RPMI1640 medium to prepare 0.3125, 0.625, 1.25, 2.5, 5, 10, 20, and 200 μg/mL diluted solutions. The diluted solutions having different concentrations were dispensed into a 96-well flat-bottom microplate in an amount of 100 μL per well, and 80 μL of the inoculum and 20 μL of an Alamar Blue solution (manufactured by Nalgene) were further added thereto. Further, 80 μL of the inoculum and 20 μL of the Alamar Blue solution were added to 100 μL of the RPMI1640 medium in growth control wells, and 20 μL of the Alamar Blue solution was added to 180 μL of the RPMI1640 medium in negative control wells. The microplate was placed in a chamber in which the humidity was kept constant, and culture was started at 27° C., and the cells were observed every 24 hours. 120 hours from beginning of culture, i.e., when the growth control became obviously red (reduced form), absorbance measurement at 570 nm was performed using a microplate reader (SPECTRAMAX 250, manufactured by Molecular Device).
The test compounds were tested at the respective concentrations in triplicate. The growth inhibition rate (%) of each of the test compound-added groups was determined by the following equation based on a value calculated by subtracting an average absorbance value of the negative control from an average absorbance value of the growth control and the test compound-added wells. Further, […] (minimum inhibitory concentration; the minimum concentration at which the growth inhibition rate is 80% or more) was calculated from the growth inhibition rate of each test compound. Growth inhibition rate (%)=[1−(average absorbance value in test compound-added wells-average absorbance value of negative control)/(average absorbance value of growth control-average absorbance value of negative control)]×100
Compound 1, Compounds 3 to 6, Compound 40, Compound 41, triphenylmethylamine, triphenylmethanol, triphenylmethane, aminodiphenylmethane, and clotrimazole were diluted with the RPMI1640 medium to prepare 0.3125, 0.625, 1.25, 2.5, 5, 10, 20, and 200 μg/mL diluted solutions. The diluted solutions having different concentrations were dispensed into a 96-well flat-bottom microplate in an amount of 100 μl, per well, and 80 μL of the inoculum and 20 μl, of an Alamar Blue solution (manufactured by Nalgene) were further added thereto. Further, 80 μl, of the inoculum and 20 μl, of the Alamar Blue solution were added to 100 μL of the RPMI1640 medium in growth control wells, and 20 μL of the Alamar Blue solution was added to 180 μL of the RPMI1640 medium in negative control wells. The microplate was placed in a chamber in which the humidity was kept constant, and then culture was started at 27° C., and the cells were observed every 24 hours. 120 hours from beginning of culture, i.e., when the growth control became obviously red (reduced form), absorbance measurement at 570 nm was performed using a microplate reader (SPECTRAMAX 250, manufactured by Molecular Device).
The test compounds were tested at the respective concentrations in triplicate. […]

The next experiment relates to normal human melanocytes. Put plainly: Melanin production inhibition test using cultured normal human melanocytes (14C-thiouracil incorporation). Particulars: Homo sapiens, Melanocyte; for activity at 5 µM: addition amount 5.0 μM. Format: cell-based. The procedure: The inhibitory effect on melanin production of the melanin production inhibitor of the present invention can be measured using thiouracil which is incorporated specifically into cells in a melanin synthesis process in the cells. For example, the amount of melanin production can be measured by measuring an amount of thiouracil incorporated into cells by measuring an amount of radiation with radiolabeled thiouracil.
The inhibitory effect on melanin production of Compound 1 was evaluated using 2-thiouracil (^14C-labeled 2-thiouracil was used in this test) which is incorporated specifically into melanin in an intracellular melanin synthesis process. Complete medium for culture of melanocytes (manufactured by Kurabo Industries Ltd.) was added to 15 wells in a 24-well plate in an amount of 2 mL per well, and normal human melanocytes (manufactured by Kurabo Industries Ltd.) were seeded into the wells at a concentration of 1.5×10^4 cells/cm^2. The cells were cultured in a 5% carbon dioxide atmosphere at 37° C. for 24 hours. Thereafter, the medium in all the wells was exchanged under the following conditions: fresh complete medium for culture of melanocytes (control) was used in three wells; each of complete medium for culture of melanocytes, which including Compound 1 at concentrations of 1.0 μM, 2.0 μM, and 4.0 μM, was used in a total of nine wells including three wells for each concentration; and complete medium for culture of melanocytes, each of which including arbutin (positive control) known as a melanin production inhibitor at a concentration of 0.5 mM (500 μM), was used in the other three wells. Further, 2-[2-^14C]thiouracil (^14C-labeled thiouracil) was added to each of these 15 wells at 0.25×10^−6 Ci (curie). Then, the cells were cultured for further 3 days under the same conditions as the above. After the completion of culture, the culture medium was removed from the wells, and the cells were washed with phosphate buffered physiological saline (PBS) and then separated from the bottoms of the wells with medium including trypsin and EDTA to prepare cell suspensions, followed by centrifugation to collect the cells. The number of the cells was counted using a hemocytometer. Thereafter, the amounts of ^14C-thiouracil in the cells collected from each well (0.25×10^−6 Ci) were measured using a liquid scintillation counter (ALOKA CO., LTD.). The percentages of an amount of radioactivity in the cells cultured in the medium including the test substances with respect to an amount of radioactivity in the cells collected from the well of the control were calculated as amounts of melanin (%). That is, as the amount of radioactivity incorporated into the cells is smaller, the amount of melanin is evaluated to be smaller, i.e., the melanin inhibition effect of the component added is evaluated to be larger.
Inhibitory effects on melanin production of Compounds 2 to 39 (however, the effects of Compound 9 and 15 were not measured) were examined in the same procedure as in Test Example 1.
These were examined in the same procedure as in Test Example 1.
Further, the results of melanin production inhibition by treatment with the respective test compounds, determined in the same procedure as in Test Example 1, are also shown in the table.

Setting [3] is: minimum concentration at which the growth inhibition rate is 80% or more.

In brackets after ≈: the same amount, converted by molar mass. Where two headings read alike, the source gives them in different places.

As to `OCCNC(c1ccccc1)(c1ccccc1)c1ccccc1` [Compound 3, 2-(triphenylmethylamino)ethanol], in experiment [1], the “ΔL* value” came to 3.9 ± 0.52 and the “inhibition of pigmentation induced by ultraviolet rays (in words)” value (shortened to “inhibition of pigmentation induced”) is “obviously inhibited pigmentation induced by ultraviolet rays”. Moreover, the “growth inhibitory effect on Trichopyton mentagrophytes (in words)” value in experiment [2] (added at a concentration of 100 μg/mL) is given as “no growth inhibitory effect”. The MIC80 in experiment [2] (setting [3]) is greater than 100 µg/mL. In the experiment with normal human melanocytes (Table 2, control = 100%), the activity at 5 µM amounted to 51.6 ± 4.2%. In addition, the activity at 10 µM with normal human melanocytes (Table 7, treatment concentration 10 μM, read-out: Amount of melanin) came to 22.3 ± 0.63%.
As for `NCCOC(c1ccccc1)(c1ccccc1)c1ccccc1` [Compound 4, 2-(triphenylmethyloxy)ethylamine], in experiment [1], the “ΔL* value” came out at 3.4 ± 0.8 and the “inhibition of pigmentation induced” value is reported as “obviously inhibited pigmentation induced by ultraviolet rays”. In experiment [2] (setting [3]), the “MIC80 Concentration” value came out at 100.0000 µg/mL (≈ 330 µM) and the MIC80 was 100 µg/mL (≈ 330 µM). Moreover, the activity at 2 µM with normal human melanocytes (Table 7, treatment concentration 2 μM, read-out: Amount of melanin) was 34.2 ± 3.58%. In addition, the activity at 2 µM in the experiment on normal human melanocytes (Table 2, addition amount 2.0 μM, control = 100%) came to 33.8 ± 0.8%.
As for `OCCOC(c1ccccc1)(c1ccccc1)c1ccccc1` [Compound 2, 2-(triphenylmethyloxy)ethanol], in experiment [1], the “ΔL* value” was 3.9 ± 0.94 and the “inhibition of pigmentation induced” value is recorded as “obviously inhibited pigmentation induced by ultraviolet rays”. In the experiment on normal human melanocytes (Table 2, control = 100%), this compound had an activity at 5 µM of 44 ± 3.2%.

The values above are taken from patent US8846012B2, “Melanin production inhibitor” (Pola Chemical Industries Inc., priority 2008, dated 2014).
